Source: ChEMBL document CHEMBL1136369, “N,N-disubstituted piperazines: synthesis and affinities at alpha4beta2(*) and alpha7(*) neuronal nicotinic acetylcholine receptors” (Bioorg Med Chem Lett, 2003)

Assays:
[1] = biological target: Neuronal acetylcholine receptor; alpha4/beta2 (Rattus norvegicus, UniProt P09483+P12390); assay: Binding affinity towards alpha4-beta2 measured by using the inhibition of [3H]NIC binding to rat striatal membrane; parameters: species or system Striatum
[2] = biological target: Neuronal acetylcholine receptor subunit alpha-7 (Rattus norvegicus, UniProt Q05941); assay: Binding affinity towards alpha-7 neuronal nicotinic acetylcholine receptor (nAChRs) measured by using the inhibition of [3H]-MLA binding to whole brain membrane
Sequence of Neuronal acetylcholine receptor subunit alpha-7 (Q05941 whole entry): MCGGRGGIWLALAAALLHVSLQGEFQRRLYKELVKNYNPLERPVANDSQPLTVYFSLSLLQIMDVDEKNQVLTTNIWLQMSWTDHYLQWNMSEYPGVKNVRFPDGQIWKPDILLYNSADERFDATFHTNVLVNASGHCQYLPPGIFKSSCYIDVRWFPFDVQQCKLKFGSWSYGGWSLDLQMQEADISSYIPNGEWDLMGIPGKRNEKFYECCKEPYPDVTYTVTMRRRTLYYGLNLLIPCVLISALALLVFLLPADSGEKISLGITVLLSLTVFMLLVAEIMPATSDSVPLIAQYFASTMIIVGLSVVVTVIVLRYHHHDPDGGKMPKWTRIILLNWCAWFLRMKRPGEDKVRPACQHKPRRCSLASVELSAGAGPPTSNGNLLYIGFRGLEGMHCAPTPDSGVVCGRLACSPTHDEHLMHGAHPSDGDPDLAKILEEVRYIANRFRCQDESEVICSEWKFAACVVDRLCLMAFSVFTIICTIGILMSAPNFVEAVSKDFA

Sequence of Neuronal acetylcholine receptor; alpha4/beta2 (P09483 whole entry): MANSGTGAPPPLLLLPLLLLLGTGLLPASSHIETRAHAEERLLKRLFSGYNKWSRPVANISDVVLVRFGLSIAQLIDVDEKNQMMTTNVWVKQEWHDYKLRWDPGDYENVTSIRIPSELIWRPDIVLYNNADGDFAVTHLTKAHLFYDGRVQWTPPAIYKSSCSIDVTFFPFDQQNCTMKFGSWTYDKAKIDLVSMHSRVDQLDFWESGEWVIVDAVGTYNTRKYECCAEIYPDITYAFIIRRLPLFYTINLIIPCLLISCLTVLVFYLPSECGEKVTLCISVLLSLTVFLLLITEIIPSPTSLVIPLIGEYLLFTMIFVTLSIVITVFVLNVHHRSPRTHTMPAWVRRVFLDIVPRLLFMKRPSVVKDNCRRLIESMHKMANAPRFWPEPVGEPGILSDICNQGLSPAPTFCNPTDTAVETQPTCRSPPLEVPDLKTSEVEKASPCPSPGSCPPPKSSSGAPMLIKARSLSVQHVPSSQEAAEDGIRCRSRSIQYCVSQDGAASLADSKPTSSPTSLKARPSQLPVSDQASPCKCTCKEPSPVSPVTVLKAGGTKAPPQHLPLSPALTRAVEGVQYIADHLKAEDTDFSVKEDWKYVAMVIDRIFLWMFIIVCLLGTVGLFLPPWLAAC
Sequence of Neuronal acetylcholine receptor; alpha4/beta2 (P12390 whole entry): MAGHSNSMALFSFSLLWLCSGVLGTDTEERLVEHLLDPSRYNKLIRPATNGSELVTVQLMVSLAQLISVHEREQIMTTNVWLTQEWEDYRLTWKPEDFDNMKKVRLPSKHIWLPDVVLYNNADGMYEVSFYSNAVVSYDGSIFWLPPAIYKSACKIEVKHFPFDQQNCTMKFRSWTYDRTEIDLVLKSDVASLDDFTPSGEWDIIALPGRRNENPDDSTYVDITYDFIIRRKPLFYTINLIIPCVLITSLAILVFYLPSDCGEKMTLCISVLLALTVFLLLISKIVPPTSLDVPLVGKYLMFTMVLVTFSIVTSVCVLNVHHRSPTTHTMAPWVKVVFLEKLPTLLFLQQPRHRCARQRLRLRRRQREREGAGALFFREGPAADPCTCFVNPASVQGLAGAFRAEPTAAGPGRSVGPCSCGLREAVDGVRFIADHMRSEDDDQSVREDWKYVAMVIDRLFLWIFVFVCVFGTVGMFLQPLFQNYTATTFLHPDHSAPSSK

Row | Compound | Ki [1] [µM] | Ki [2] [µM]
1 | O=C(C1CCCCN1)N1CCN(Cc2ccccn2)CC1 (racemic) | > 100 | > 100
2 | CN1CCC[C@H]1CN1CCN(Cc2cccnc2)CC1 |  | > 100
3 | O=C(C1CCCCN1)N1CCN(Cc2cccnc2)CC1 (racemic) [SCR01020] | 54.8 | > 100
4 | c1cncc(CN2CCN(CC3CCCCN3)CC2)c1 (racemic) | > 100 | > 100
5 | CN1CCCCC1CN1CCN(Cc2cccnc2)CC1 (racemic) |  | > 100
6 | c1cc(CN2CCN(C[C@@H]3CCCN3)CC2)ccn1 | 46 | > 100
7 | CN1CCC[C@H]1CN1CCN(Cc2ccncc2)CC1 | 38.9 | > 100
8 | O=C(C1CCCCN1)N1CCN(Cc2ccncc2)CC1 (racemic) | 60.5 | > 100
9 | c1cncc(CN2CCN(C[C@@H]3CCCN3)CC2)c1 | > 100 | > 100
10 | c1cc(CN2CCN(CC3CCCCN3)CC2)ccn1 (racemic) | > 100 | > 100
11 | c1cncc([C@@H]2CCCN2)c1 [NORNICOTINE] |  | 1.19
12 | CN1CCCCC1CN1CCN(Cc2ccncc2)CC1 (racemic) | 42 | > 100
13 | O=C([C@@H]1CCCN1)N1CCN(Cc2ccccn2)CC1 | > 100 | > 100
